Measurements taken from patent publication US20050069544A1, “Pharmaceutical composition and a method of treatment” (priority 1998, published 2005).
“Also recorded” adds a separate entry of the source.

How the values were obtained:
[1] = tested on: HLA-DR15 transgenic mice; assay: Tolerisation in vivo to RhD protein in HLA-DR15 transgenic mice
Procedure: HLA-DR15 transgenic mice were immunised twice with 2 mg/ml purified RhD protein. The first subcutaneous injection was followed 14 days later by an intraperitoneal injection. Mice were sacrificed 14 days after the final injection. The spleen was removed and blood collected by cardiac puncture.
Fourteen days before RhD immunisation (as above) 25 μl of 2 mg/ml soluble RhD peptides were administered by the intranasal route.
Fourteen days before RhD immunisation (as above) 25 μl of 2 mg/ml soluble RhD peptides were administered by the subcutaneous route.
Splenocytes were homogenised and a single cell suspension was isolated over 40 μm mesh filters (Becton Dickinson) and resuspended to 1.25×10^6 cells/ml in the Alpha Modification of Eagle's Medium (ICN Flow, Bucks UK) supplemented with 5% autologous serum, 4 mM L-Glutamine (Gibco, Paisley, UK), 100 U/ml sodium benzylpenicillin G (Sigma), 100 μg/ml streptomycin sulphate (Sigma), 5×10^−5 2-mercaptoethanol (Sigma) and 20 mM HEPES pH7.2 (Sigma). All plates were incubated at 37° C. in a humidified atmosphere of 5% CO2/95% air. The cell proliferation in cultures was estimated from the incorporation of ^3H-thymidine (Amersham) in triplicate wells 5 days after stimulation with antigen. Proliferation results are presented either as the mean CPM±SD of the triplicate samples, or as a stimulation index (SI) expressing the ratio of mean CPM in stimulated versus unstimulated control cultures. An SI>3 with CPM>500 is interpreted as representing a positive response.
Round bottomed microtitre plates (Nunc, Roskilde, Denmark) were blocked in phosphate buffered saline pH 7.4 (PBS) containing 0.2% bovine serum albumin (BSA), before addition of 50 μl 2% v/v washed human D-positive RBC. Test sera were incubated at 50 μl per well with triplicate RBC samples for 1 hour at 37° C. and washed three times in PBS-BSA before fixing for 30 minutes in 0.15% glutaraldehyde (Sigma, Dorset, UK) to prevent lysis of the cells in the alkaline conditions required later in the test. The fixed RBC were transferred to fresh, pre-blocked, 96-well plates and washed before incubation with 50 μl per well 1 μg/ml goat anti-mouse IgG γ-chain specific antibody (Sigma) or goat anti-mouse IgM μ-chain specific antibody (Sigma) for 1 hour at 37° C. After washing, the plates were incubated with 50 μl per well 1 μg/ml rabbit anti-goat IgG alkaline phosphatase (Sigma) for 1 hour at 37° C., washed, and 100 μl of phosphatase substrate solution was then incubated in each well for 1 hour at 37° C. After pelleting of the RBC by centrifugation, 50 μl of each supernatant was transferred into the wells of fresh, flat-bottomed microtitre plates (Nunc) and the absorbance measured at 405 nm, with 492 nm as a reference, using a multiscan plate reader (Labsystems, Basingstoke, UK). Each result is expressed as the mean of triplicate wells. Inter-assay variation was controlled for by including previously tested RBC samples on each plate.
It is known from other animal models (Elson C J & Barker R N. Helper T-cells in antibody mediated, organ specific autoimmunity. Curr Opin Immunol, 2000; 12:664-669) that mucosal administration of immunodominant peptides which induce an immune response when given with adjuvant by the parenteral route will inhibit responsiveness, and induce antigen specific tolerance. To test the effectiveness of peptides containing immunodominant allo-RhD helper epitopes in preventing antibody response to the RhD protein, HLA-DR15 transgenic mice were used for the in vivo testing of these peptides as most alloimmunised donors responding to RhD bear this MHC class II allele.

[2] = tested on: CD3+ CD4+ T-cells of RhD-alloimmunised donors; assay: Three colour flow cytometry of CD3, CD4 and intracellular IFN-γ or IL-10 in PBMC from RhD-alloimmunised donors; format: cell-based, human; details: CD3+ gated, representative alloimmune donor, 5 days; for proportion of CD4+ IL-10+ T-cells: unstimulated cultures 2.4%; for proportion of CD4+ IFN-γ+ T-cells: unstimulated cultures 4.2%
Procedure: (§1) The secretion of cytokines identified in Example 1.3 by T-helper cells is confirmed by flow cytometery analysis. Simultaneous measurement of surface molecules CD3 and CD4 and intracellular cytokines IFN-γ or IL-10 was carried out using three colour flow cytometry analysis in PBMC, isolated from RhD-alloimmunised donors, cultured with either no antigen or RhD peptide for five days after stimulation. All analysis was carried out using Expo v2 analysis software (applied Cytometry Systems). The CD3+ T-cells were gated open and the numbers of IFN-γ+ and CD4+ cells were assessed. In all donors tested there was a significant increase in the proportion of CD4+ IFN-γ+CD3+ T-cells to at least one of the RhD peptides tested. In the representative example shown in FIGS. 12A to 12L it can be seen that the proportion of CD4+ IFN-γ+cells was 4.2% in unstimulated cultures (FIG. 12E). […] The IL-10 and CD4+ expression was also assessed on CD3+ gated population of T-cells. In PBMC cultures isolated from the alloimmune donor shown, there was an increase in the proportion of CD4+ IL-10+T-cells from 2.4% in unstimulated PBMC cultures (FIG. 12I) to 6.5% in culture stimulated with RhD peptide 13 (FIG. 12J) to 6.2% in cultures stimulated with RhD peptide 17 (FIG. 12K) and 5.9% with RhD peptide 28 (FIG. 12L).

[3] = tested on: PBMC from RhD alloimmunised donors; assay: Cell proliferation assay (3H-thymidine) of PBMC from RhD alloimmunised donors stimulated with RhD peptides; format: cell-based, human; details: peptide 20 μg/ml, 5 days
Procedure: Five complete panels of 68 15-mer peptides, with 5 or 10 amino acid overlaps, were synthesized (Multiple Peptide Service, Cambridge Research Biochemicals, Cheshire, UK and Dept. Of Biochemistry, University of Bristol, UK), corresponding to the sequences of the 30 kD Rh proteins associated with expression of the RhD or RhcE/ce/Ce/CE blood group antigens respectively (Tables 1 to 5). An additional three peptide sequences is added to the panel of RhD peptides to account for the Ile to Met substitution described earlier (numbered from 69 to 71). The amino acid sequences for each of these proteins were deduced from cDNA analyses (FIG. 1). In order to ensure purity, each panel was synthesized by fluorenylmethoxycarbonyl chemistry on resin using a base-labile linker, rather than by conventional pin technology, and randomly selected peptides were screened for purity by HPLC and amino acid analysis.
Peripheral blood mononuclear cells (PBMC) from donors or patients were separated from fresh blood samples using Ficoll-Hypaque. The donors and patients had become alloimmunised with RhD-positive blood either through pregnancy, a blood transfusion or through immunization with the relevant blood.
PBMC were cultured in 100 μl volumes in microtitre plates at a concentration of 1.25×10^6 cells/ml in an Alpha Modification of Eagle's Medium (ICN Flow, Bucks UK) supplemented with 5% autologous serum, 4 mM L-Glutamine (Gibco, Paisley, UK), 100 U/ml sodium benzylpenicillin G (Sigma), 100 μg/ml streptomycin sulphate (Sigma), 5×10^−5M 2-mercaptoethanol (Sigma) and 20 mM HEPES pH7,2 (Sigma). All plates were incubated at 37° C. in a humidified atmosphere of 5% CO2/95% air. The cell proliferation in cultures was estimated from the incorporation of ^3H-Thymidine in triplicate wells 5 days after stimulation with antigen as described previously. Proliferation results are presented either as the mean CPM+/−SD of the triplicate samples, or as a stimulation index (SI), expressing the ratio of mean CPM in stimulated versus unstimulated control cultures. An S1>3 with CPM>1000 is interpreted as representing a positive response.

[4] = tested on: CD3+ CD4+ T-helper cells of AIHA patients; assay: Flow cytometry of CD3, CD4 and intracellular cytokines in PBMC from AIHA patients; format: cell-based, human; details: AIHA patient; for CD3+ CD4+ population of T-helper cells: FIGS. 23A to 23D; for CD4+ T-helper cells expressing intracellular IFN-γ: FIGS. 23E to 23H
Procedure: as §1
The secretion of cytokines identified in Example 2.3 by T-cells is confirmed utilising the experiments mentioned in Example 1.4, which were repeated using PBMC isolated from patients with AIHA.

[5] = tested on: PBMC from RhD-alloimmunised donors; assay: celELISA of cytokine production (IL-10, TGF-β1) by PBMC from RhD alloimmunised donors; format: cell-based, human
Procedure: Cultured T-cells are stimulated with each of the epitopes given in Table 1 and after 5 days the responding cells were transferred to flat-bottomed microtitre plates (96-well Nunc-Immuno Maxisorp) coated with […] per well of monoclonal anti-cytokine capture antibody diluted in 0.05M alkaline carbonate coating buffer pH 9.6. Unbound capture antibody was removed by two washes with HBSS and non-specific binding potential blocked by incubation with 200 μl per well of phosphate buffered saline, pH 7.4 (PBS containing 3% BSA).
Five days after stimulation, lymphocyte cultures were mixed to resuspend the cells and duplicate 100 μl aliquots were transferred into wells coated with the respective capture antibody specific for IFN-γ, IL-10 or TGF-β. The plates coated with capture antibodies and layered by lymphocytes were then incubated for a further 24 hours at 37° C. in a humidified atmosphere of 5% CO2 and 95% air. After this incubation the PBMC were removed by four washes with 0.2% Tween/PBS. One hundred microlitre aliquots of the appropriate biotinylated monoclonal detection antibody in 0.2% BSA/PBS were then added to the wells and incubated at room temperature for 45 minutes.
After six washes with 0.5% Tween/PBS, 100 μl of 1:100,000 ExtrAvidin-alkaline phosphatase conjugate (Sigma) was then added to each of the wells and incubated at room temperature for 30 minutes. The ExtrAvidin conjugate was removed by eight washes with 0.2% Tween/PBS, and the plates developed using 100 μl per well of p-nitrophenyl phosphate (Sigma) 1.0 mg/ml in 0.05M carbonate alkaline buffer pH9.6. The absorbance at 405 nm was then measured using a Multiscan plate reader (Labsystems Basingstoke UK).
Cytokine secretion was measured by interpolation from a standard curve generated by incubating duplicate wells with doubling dilutions of recombinant human IFN-γ or IL-10 or TGF-β (Pharmingen). The standard curves were modelled by a smoothed cubic spline function applied to the absorbance reading and the cytokine concentrations after a quasilogarithmic transformation, where: quasiloge(z)=loge[z+{square root}[z^2+1]).
Using celELISA technique, the 68 RhD peptide panel was screened for the ability to induce IL-10 and TGF-β production for PBMC from a total of 19 samples from 12 different alloimmune donors. PMBC from 10 out of the 12 RhD-alloimmunised donors could produce IL-10 to at least one of the RhD peptides on at least one occasion, with a total of 194 significant IL-10 responses to the RhD peptides between all the donors. The RhD peptides that induced significant TGF-β or IL-10 and proliferative responses from PBMC in all the samples screened are summarised in FIGS. 10 and 11.

[6] = peptide intranasal 14 days before RhD immunisation
[7] = nasal administration of peptide prior to RhD immunisation
[8] = peptide parenteral (subcutaneous) before RhD immunisation

Q: Which “RhD-specific proliferation by splenocytes after prior tolerisation” value (“RhD-specific proliferation” for short) [1, 6] does the source give for “AYFGLSVAWCLPKPL (Residue 177-191 RhD; listed as Homo sapiens) [peptide 28]” here?
A: reduction in the RhD-specific proliferation

Q: And the “proportion of CD4+ IL-10+ T-cells” value [2]?
A: 5.9%

Q: What about the “proportion of CD4+ IFN-γ+ T-cells” value [2] of the same sequence?
A: 10.2%

Q: And the “proliferative T-cell response to RhD peptides” value (“proliferative T-cell response” for short) [3]?
A: most commonly targeted

Q: “FLSQFPSGKVVITLF (Residue 97-111 RhD; listed as Homo sapiens) [peptide 13]” was tested. Which “RhD-specific proliferation” value [1, 6] did it give?
A: reduction in the RhD-specific proliferation

Q: And the “proportion of CD4+ IL-10+ T-cells” value [2]?
A: 6.5%

Q: And the “proliferative T-cell response” value [3]?
A: most commonly targeted

Q: Which results are given for “GALFLWMFWPSFNSA (Residue 212-226 RhD; listed as Homo sapiens) [compound 35]”?
A: CD3+ CD4+ population of T-helper cells [4]: expansion of a CD3+ CD4+population of T-helper cells; CD4+ T-helper cells expressing intracellular IFN-γ [4]: expansion of CD4+ T-helper cells that express intracellular IFN-γ

Q: How did the “RhD-specific proliferation” value [1, 6] turn out when “QDLTVMAAIGLGFLT (Residue 52-66 RhD; listed as Homo sapiens) [peptide 6]” was run?
A: reduction in the RhD-specific proliferation

Q: What about the “RhD-specific proliferation” value ([1]; peptide intranasal 14 days before RhD immunisation, listed as p6) of the same sequence?
A: reduced T-cell response to RhD protein

Q: What about the “serum anti-human RBC antibody, rr red blood cells” value ([1]; peptide intranasal before RhD immunisation) of the same sequence?
A: reduction of anti-human RBC antibody

Q: And the “IL-10 production by PBMC” value ([5]; FIG. 3 and FIG. 10)?
A: commonly induce the production of IL-10; also recorded: induce IL-10 production in the absence of a proliferative response or the production of IFN-γ or IL-4

Q: And the “proliferative T-cell response” value [3]?
A: most commonly targeted

Q: How did the “IL-10 production by draining lymph node cells” value [1, 7] turn out when “SIRLATMSALSVLIS (Residue 112-126 RhD; listed as Homo sapiens) [peptide 16]” was run?
A: increase

Q: What about the “TGF-β1 production by draining lymph node cells” value [1, 7] of the same sequence?
A: increase

Q: And the “TGF-β1 production by PBMC” value ([5]; FIG. 3 and FIG. 11)?
A: commonly induce the production of TGF-β1

Q: And the “proliferative T-cell response” value [3]?
A: most commonly targeted

Q: Which results are given for “TMSALSVLISVDAVL (Residue 117-131 RhD; listed as Homo sapiens) [peptide 17]”?
A: RhD-specific proliferation by splenocytes after prior tolerisation [1, 6]: reduction in the RhD-specific proliferation; proportion of CD4+ IL-10+ T-cells [2]: 6.2%; proportion of CD4+ IFN-γ+ T-cells [2]: 20.3%; proliferative T-cell response to RhD peptides [3]: most commonly targeted; also recorded: induces significant PBMC proliferation; percentage of donors in whom a proliferative response was elicited ([3]; SI>3 with CPM>1000 positive, FIG. 6): 70%

Q: How did the “RhD-specific proliferation” value [1, 8] turn out when “VGAGNGMIGFQVLLS (Residue 352-366 RhD; listed as Homo sapiens) [compound 60]” was run?
A: reduced T-cell response to RhD protein

Q: And the “serum anti-human RBC antibody, rr red blood cells” value [1, 8]?
A: no change

Q: What about the “CD3+ CD4+ population of T-helper cells” value [4] of the same sequence?
A: expansion of a CD3+ CD4+population of T-helper cells

Q: What about the “CD4+ T-helper cells expressing intracellular IFN-γ” value [4] of the same sequence?
A: expansion of CD4+ T-helper cells that express intracellular IFN-γ
